Experimental data reported in patent US12168781B2, “Production method for T cells or NK cells, medium for culturing T cells or NK cells, method for culturing T cells or NK cells, method for maintaining undifferentiated state of undifferentiated T cells, and growth-accelerating agent for T cells or NK cells” (KIRIN HOLDINGS KABUSHIKI KAISHA, priority 2018, dated 2024).

System: T-iPS-T cells
Assay: Feeder-free culture of T-iPS-T cells, FACS count of PI-negative cells and CD45RA(+)CCR7(+) cells
Assay type: cell-based, human
Conditions: 6 days; for Number of CD45RA+CCR7+ cells: DMSO 3891 ± 3170; for Cell number: DMSO 16096 ± 10785
Experimental: After washing, the cells were resuspended in the staining solution containing PI. Half the amount was analyzed using a BD LSR Fortessa cytometer (BD Bioscience) equipped with HTS, and all cells were recorded.
The concentration dependence of the bisbenzylisoquinoline alkaloid represented by the formula (X-1) or the formula (X-2) in feeder-free proliferation of T-iPS-T cells was examined. T-iPS-T cells were cultured using alpha-MEM medium supplemented with 15% FBS, 1% PSG, PAA (50 μg/mL), ITS-G, IL-7 (5 ng/mL), IL-12 (50 ng/mL), IL-15 (5 ng/mL), IL-18 (50 ng/mL), IL-21 (20 ng/mL), and z-VAD-fmk (10 μM).
The effect on culturing of T-iPS-T cells was evaluated by comparing a known compound that contributes to the proliferation of memory T cells with berbamine. […] DMSO (0.1%) that is a solvent for the compound was used as a control.
The number of events of PI-negative cells and the number of events of CD45RA(+)CCR7(+) cells in the PI-negative cells, which were analyzed by FlowJo 9, were used as data. Note that in a statistical analysis, a Student's t-test was used (*: p<0.05).
The effect of the combined use of berbamine with a MAPK cascade inhibitor on the proliferation of memory T cells was examined. […] The final concentration of each compound was set to 1 μM. DMSO (0.1%) that is a solvent for the compound was used as a control.
The number of events (#Cells) of CD45RA(+)CCR7(+) cells in the PI-negative cell population analyzed by FlowJo 9 was plotted and graphed. Note that in a statistical analysis, a Student's t-test was used (*: p<0.05, **P<0.01, ***P<0.001, ****P<0.0001).

| Structure (SMILES) | Number of CD45RA+CCR7+ cells (1 nM) | Cell number (1 nM) | Number of CD45RA+CCR7+ cells (3 nM) | Cell number (3 nM) | Number of CD45RA+CCR7+ cells (10 nM) | Cell number (10 nM) | Number of CD45RA+CCR7+ cells (30 nM) | Cell number (30 nM) | Number of CD45RA+CCR7+ cells (100 nM) | Cell number (100 nM) | Number of CD45RA+CCR7+ cells (300 nM) | Cell number (300 nM) | Number of CD45RA+CCR7+ cells (1 μM) | Cell number (1 μM) | Number of CD45RA+CCR7+ cells (3 μM) | Cell number (3 μM) | Number of CD45RA+CCR7+ cells (10 μM) | Cell number (10 μM) |
| --- | --- | --- | --- | --- | --- | --- | --- | --- | --- | --- | --- | --- | --- | --- | --- | --- | --- | --- |
| COc1ccc2cc1Oc1ccc(cc1)C[C@H]1c3c(cc4c(c3Oc3cc5c(cc3OC)CCN(C)[C@@H]5C2)OCO4)CCN1C [Cepharanthine, cepharanthine] | 5429 ± 3207 ** | 18312 ± 7127 | 5256 ± 3168 | 19212 ± 8368 | 5632 ± 3014 *** | 20590 ± 9995 | 7764 ± 3495 ** | 29158 ± 12980 * | 9486 ± 4802 * | 41856 ± 9113 ** | 13060 ± 7584 * | 52923 ± 5313 ** | 10741 ± 5793 | 48800 ± 17971 * | 9245 ± 4682 * | 31965 ± 19694 | 1447 ± 2117 | 4884 ± 8378 |
| COc1cc2c3cc1Oc1c(OC)c(OC)cc4c1[C@@H](Cc1ccc(OC(=O)c5ccc([N+](=O)[O-])cc5)c(c1)Oc1ccc(cc1)C[C@@H]3N(C)CC2)N(C)CC4 [E6 Berbamine, E6-berbamine] | 6440 ± 4121 * | 20795 ± 11427 ** | 6205 ± 4137 * | 19420 ± 9845 ** | 6015 ± 4682 | 22404 ± 11035 *** | 7410 ± 4691 * | 28009 ± 13327 * | 10775 ± 5788 * | 44562 ± 11985 ** | 12148 ± 6414 * | 55682 ± 3508 ** | 5075 ± 3582 | 26964 ± 23925 | 2080 ± 3520 | 16367 ± 26569 | 1791 ± 3538 | 8441 ± 16764 |
